Experiment [1] has as its system fibrinogen α mRNA. In words: Fibrinogen mRNA expression in IL-6-stimulated HepG2 cells (real time RT-PCR). In kind it is cell-based, human. As to conditions: 200 mM M16αα 40 h, control as well as IL-6 (20 ng/ml, last 15 h) induced cells, normalized by GAPDH. As to the method:
HepG2 cells were incubated for 40 h with […] M16αα. IL-6 (20 ng/ml) was added for the last 15 h. Total RNA was prepared and was analyzed by real time RT-PCR for fibrinogen a mRNA. Transcript levels were normalized by GAPDH.
The hypolipidemic effect of both M16ααα and/or M16ββ (MEDICA drugs) and its application in the treatment of Metabolic Syndrome, led the inventors to try and examine the effect of these drugs on another crucial risk factor in Metabolic Syndrome CVD patients, namely, the inflammatory indications. These indications are identified by markers like C-reactive protein (CRP), Serum amyloid A (SAA), fibrinogen and ICAM that promote atherosclerotic CVD. To evaluate the possible anti-inflammatory effect of MEDICA drugs, the inventors first examined the effect of M16αα, on the expression of different acute phase proteins (APP). Human liver cells (HepG2 cells) were stimulated with IL-6 and incubated with the MEDICA drug, M16αα. Total RNA was analyzed by real time PCR for expression of mRNA of different acute phase proteins (APP).
On the technique in general: In qPCR the cycle at which signal appears reflects the starting amount.

In experiment [2] the test system is STAT3. In words: IL-6-induced STAT3 phosphorylation in Hek293 kidney cells (Western blot). In kind it is cell-based. As to conditions: 250 μM 9 h, serum free medium 0.2% Albumin, IL-6 20 ng/ml last 5.5 h. As to the method: Hek293 cells were incubated for 9 h with M16αα (250 μM) in serum free medium containing 0.2% Albumin. IL-6 (20 ng/ml) was added during the last 5.5 h period. Western blots of cell lysates were reacted with anti gp130 and anti P-STAT3 (Y705) antibodies and normalized by β-actin. Abbreviations: cont. (control).
The examined effect of MEDICA drugs on expression of APP, was further analyzed by analyzing the effect of M16αα on downstream elements in the signaling pathway leading to expression of APP. Signal Transducers and Activators of Transcription 3 (STAT3), is a transcription factor phosphorylated by JAK kinases in response to cytokine activation of a cell surface receptor tyrosine kinases. Cytokines that activate STAT3 include growth hormone, IL-6 family cytokines, Oncostatin, LIF, CNTF and G-CSF, Leptin and others. As illustrated by FIG. 1, upon cytokine activation, the STAT3 proteins dimerize and are localized to the nucleus where they activate transcription of APP as well as of other cytokine-responsive genes coding for cell survival, growth and proliferation. Therefore, the inventors next examined whether the effect of MEDICA drugs on the expression of APP is a result of interfering with STAT3 transcription activity or whether MEDICA drugs are involved in a more upstream element of the transduction pathway such as the gp130 receptor. […]
On the technique in general: Immunoblotting shows a protein as a band on a membrane.

Experiment [3] has as its system U266 cells. In words: Growth of Multiple Myeloma U266 cells, Trypan Blue exclusion. Conditions: 200 μM, day 6. Type of experiment: cell-based. As for the experimental part: (§1) Growth Suppression by M16αα of Multiple Myeloma (MM) cells. MM cells were incubated in RPMI 1640 medium in the presence of added M16αα as indicated. Cell number was determined daily by Trypan Blue exclusion.
(§2) The inhibitory effect of MEDICA drugs on colon tumor cell proliferation, presumably via activation of apoptosis, encouraged the inventors to further investigate the potential beneficial effect of these compounds on other malignancies. The inventors therefore next examined the effect of the MEDICA drugs using the Multiple myeloma model. U-266 and RPMI-8226 cell lines served as cell models for MM. MM cells were incubated in RPMI 1640 medium in the presence of M16αα as indicated. Cell number was determined daily by Trypan Blue exclusion assay. […] It should be noted that generally, these cells were more sensitive even to lower concentrations of M16αα.

The test system of experiment [4] is RPMI8226 cells. In words: Growth of Multiple Myeloma RPMI8226 cells, Trypan Blue exclusion. In kind it is cell-based. Conditions: 200 μM, from day one. As for the experimental part:
as §1, §2

The test system of experiment [5] is RPMI8226 cells. In words: Cell cycle arrest markers in MM RPMI8226 cells (Western blot). In kind it is cell-based. Conditions: 200 μM, 24 h. As for the experimental part:
Cell Cycle arrest of MM RPMI8226 by M16αα. RPMI8226 cells were cultured with 200 μM M16αα, in RPMI 1640 medium with 10% FCS for 24 h, lysed, Western blotted and reacted with anti p-P53(S15) and p-Rb as indicated.

Experiment [6] relates to STAT3, GP130. In words: STAT3 activation and GP130 in stimulated spleen cells of treated EAE mice (Western blot). In kind it is in vivo. Conditions: EAE mice 60 mg/kg/day 12 days by gavage. As to the method: (§3) To further investigate the preventive potential of MEDICA drugs, and specifically of M16αα on EAE model, the effect of these drugs on different pathways involving activation of the immune system have been next examined. Therefore, female mice were treated with M16αα (60 mg/kg/day) or vehicle (1% CMC, the control group) for 12 days by gavage. On the third day EAE has been induced by injection of the MOG35-55 peptide. Nine days following MOG35-55 peptide immunization, mice were anesthesized and sacrificed. Spleenocytes were prepared and were stimulated in vitro with either MOG (100 μg/ml) or LPS (50 μg/ml) and the activation of STAT3 was analyzed by Western blot using anti p-STAT3 (Y705) and anti GP130 antibodies. Liver was immediately frozen in liquid nitrogen and kept at −70 until used for protein and RNA preparation. Total RNA was prepared and analyzed by real time PCR for SAP, SAA, α-fibrinogen and IL-6 gene expression.

Experiment [7] relates to liver APP (SAP, SAA, α-fibrinogen) and IL-6 gene expression. In words: Liver Acute Phase Proteins and IL-6 gene expression in EAE mice (real time PCR). Type of experiment: in vivo. Conditions: EAE mice 60 mg/kg/day 12 days by gavage. As to the method: as §3

On to `CC(C)(CCCCCCCCCCCCC(C)(C)C(=O)O)C(=O)O` [M16αα, 2,2,15,15-tetramethyl-hexadecanedioic acid], for which the “fibrinogen mRNA levels” value in experiment [1] is given as “clearly reduced”. Also, the “IL-6-induced phosphorylation of STAT3 Y705” value in experiment [2] is reported as “Inhibition”. Further, the cell proliferation result in experiment [3] is given as “complete inhibition”. Also, in experiment [4], the “cell number relative to control” value was “about 20 % of control”. Moreover, in experiment [5], the “phosphorylated Rb” value is “reduction” and the “phosphorylated p53” value is listed as “increase”. In addition, the “LPS-induced STAT3 (p-STAT3 Y705) in spleen cells” value in experiment [6] (spleenocytes stimulated in vitro with LPS 50 μg/ml) was “not the LPS-induced STAT3 is suppressed”. Further, the “MOG-induced STAT3 (p-STAT3 Y705) in spleen cells” value in experiment [6] (spleenocytes stimulated in vitro with MOG 100 μg/ml) was “suppressed”. For the same compound, the “liver APP and IL-6 gene expression” value in experiment [7] is “robustly suppressed”.
